The values that follow come from US7858394B2, “Test methods for determining the intracellular concentration of cyclic nucleotides” (Axxam SpA, priority 2003, dated 2010).

In assay [1] the test system is soluble guanylate cyclase. Put plainly: Luminescence measurement of intracellular cGMP in a cell line expressing the CNG2 channel, a calcium-sensitive photoprotein and soluble guanylate cyclase. Format: cell-based. As to conditions: dose-dependent; RLUs measured for 1 min; FIG. 2.
Procedure: (§1) The cells are seeded for the measurements on 384-well microtitre plates (MTPs) at 1500 cells per well and on 1536-well MTPs at 250 cells per well. After 1-2 days of growth at 37° C./5% CO2, the cell culture medium (DMEM/F12 containing 10% foetal calf serum) is removed and the cells are charged with coelenterazine (0.8 μg/ml) in calcium-free Tyrode's at 37° C./5% CO2 for 3 h. Subsequently, test substances and appropriate control substances (e.g. SIN-1 or isoprenaline) are added in calcium-free Tyrode's and incubated on the cells for 5-10 min. The extra measurement is then carried out in a light-tight box by adding calcium-containing Tyrode's via a comb (final calcium concentration: 3 mM), with the aid of a charge-coupled device camera.

Procedure for β-adrenergic receptor: as §1
To measure the effects of substances directly, the cells are charged with coelenterazine in calcium-containing Tyrode's. The substances are then added within the light-tight box and measurement commences immediately with addition of the substances (FIG. 5).
If the cells are charged with coelenterazine in calcium-containing Tyrode's, the agonist isoprenaline may also be added directly to the cells within the light-tight box.

For the molecule `CC(C)NCC(O)c1ccc(O)c(O)c1` (stereo not drawn) [isoprenaline], the “time until luminescence signal is observed after addition of agonist” value in the assay with β-adrenergic receptor (cells charged with coelenterazine in calcium-containing Tyrode's, agonist 10^-6 M added directly within the light-tight box, FIG. 5) is reported as “within a few seconds”. The “luminescence signal (intracellular cAMP concentration) after activation of the β-adrenergic receptor” value in the assay on β-adrenergic receptor (dose-dependent, 10 min incubation in calcium-free Tyrode's, measurement started by adding calcium, 0, 10^-7 M, 10^-6 M, FIG. 4) was “enhanced lumiscence signal”. Consider `[NH-]c1c[n+](N2CCOCC2)no1` [SIN-1], for which the “luminescence signal (intracellular cGMP concentration) after activation of soluble guanylate cyclase” value in assay [1] was “enhanced luminescence signal”.
